Laboratory results taken from patent publication US20240189221A1, “METHODS AND FORMULATIONS FOR TREATING VASCULAR DISEASE” (ENDOPERFUSION SOLUTIONS, LLC, priority 2015, published 2024).

Tested on: Human artery smooth muscle cells
Assay: Smooth muscle cell proliferation (cell count by flow cytometry)
Format: cell-based
Settings: 0.01-1 μM, 48 h; FIG. 6, FIG. 7A
Procedure: Human artery smooth muscle cells were seeded at 20,000 cells per well on 24-well plates (3 wells per condition) in growth medium and allowed to adhere overnight at 37° C. […] Cells were washed with PBS, trypsinized, and counted using a flow cytometer (Beckman-Coulter FC500).

## COCc1c(C(C)C)nc(C(C)C)c(/C=C/[C@@H](O)C[C@@H](O)CC(=O)O)c1-c1ccc(F)cc1 [free cerivastatin, (3R,5S,6E)-7-[4-(4-fluorophenyl)-5-(methoxymethyl)-2,6-bis(propan-2-yl)pyridin-3-yl]-3,5-dihydroxyhept-6-enoic acid]
  proliferation of SMCs: inhibits the proliferation of SMCs
